Measured values: ChEMBL document CHEMBL4828736, “Discovery of ASTX029, A Clinical Candidate Which Modulates the Phosphorylation and Catalytic Activity of ERK1/2” (J Med Chem, 2021)

Key:
[1] = in vivo; conditions: BALB/c, mouse, po, 5 mg/kg
[2] = physchem; conditions: buffer, pH 7.4
[3] = in vivo; conditions: BALB/c, mouse, iv, 0.5 mg/kg
[4] = in vivo; conditions: BALB/c, mouse, po, 5 mg/kg; remark: listed apart in the source
[5] = in vivo; conditions: BALB/c, mouse, iv, 0.5 mg/kg; remark: listed apart in the source
[6] = test system: A-375; assay: cells; format: functional, cell-based; conditions: Homo sapiens, A-375, 96 h
[7] = in vitro; conditions: CD1, mouse, microsomes
[8] = in vivo; conditions: BALB/c, mouse, po, 5 mg/kg; remark: listed apart in the source
[9] = in vitro; conditions: human, microsomes
[10] = molecular target: CYP3A4 (Homo sapiens, UniProt P08684); assay: in vitro; conditions: recombinant enzyme
[11] = molecular target: Mitogen-activated protein kinase 1 (Homo sapiens) (UniProt P28482); conditions: dose 1.0 nM, time 30.0 min
[12] = test system: COLO 205; assay: cells; format: functional, cell-based; conditions: Homo sapiens, COLO 205, 96 h

Sequence of CYP3A4 (P08684 whole entry): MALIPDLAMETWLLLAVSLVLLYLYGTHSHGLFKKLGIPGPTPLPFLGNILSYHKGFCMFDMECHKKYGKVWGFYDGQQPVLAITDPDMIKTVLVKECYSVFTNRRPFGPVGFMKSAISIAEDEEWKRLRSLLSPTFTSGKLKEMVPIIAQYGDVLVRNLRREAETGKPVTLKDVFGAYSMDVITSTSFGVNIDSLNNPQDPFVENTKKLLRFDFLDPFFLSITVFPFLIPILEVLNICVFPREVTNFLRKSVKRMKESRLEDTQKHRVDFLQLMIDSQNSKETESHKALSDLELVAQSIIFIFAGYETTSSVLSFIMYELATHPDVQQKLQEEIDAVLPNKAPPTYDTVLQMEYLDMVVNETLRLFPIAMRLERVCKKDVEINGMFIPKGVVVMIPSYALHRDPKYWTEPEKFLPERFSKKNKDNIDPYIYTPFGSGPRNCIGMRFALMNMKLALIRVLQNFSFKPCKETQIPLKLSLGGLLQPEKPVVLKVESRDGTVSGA
Sequence of Mitogen-activated protein kinase 1 (Homo sapiens) (P28482 whole entry): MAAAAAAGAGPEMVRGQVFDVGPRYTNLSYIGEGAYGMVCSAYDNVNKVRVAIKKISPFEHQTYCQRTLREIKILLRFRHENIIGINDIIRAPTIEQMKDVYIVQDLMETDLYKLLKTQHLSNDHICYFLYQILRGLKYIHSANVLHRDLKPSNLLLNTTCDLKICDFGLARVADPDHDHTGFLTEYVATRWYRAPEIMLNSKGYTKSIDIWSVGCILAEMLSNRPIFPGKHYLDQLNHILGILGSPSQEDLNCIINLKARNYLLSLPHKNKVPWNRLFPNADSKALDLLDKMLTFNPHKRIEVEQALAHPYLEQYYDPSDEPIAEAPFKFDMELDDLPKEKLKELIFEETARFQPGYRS

SMILES | half-life at 24 h [1] | chromatographic logD [2] | clearance at 24 h [3] | AUC at 24 h [4] | Vd at 24 h [5] | IC50 [6] | half-life at 40 min, 1 µM [7] | bioavailability at 24 h [8] | half-life at 40 min, 1 µM [9] | half-life at 40 min, 1 µM [10] | inhibition [11] | IC50 [12]
COc1cc(F)cc([C@@H](CO)NC(=O)CN2Cc3ccc(-c4nc(NC5CCOCC5)ncc4Cl)cc3C2=O)c1 | 90 min | 3.3 | 3.24 L/h/kg | 0.15 µg·h/mL | 1.4 L/kg | 0.004 µM | 86 min | 10% | 31 min |  |  | 
Cc1cccc([C@@H](CO)NC(=O)[C@@H](C)N2Cc3ccc(-c4nc(NC5CCOCC5)ncc4Cl)cc3C2=O)c1 |  | 3.9 |  |  |  |  | 31 min |  | 12 min |  |  | 
Cc1cccc([C@@H](CO)NC(=O)CN2Cc3ccc(-c4nc(NC5CCOCC5)ncc4Cl)cc3C2=O)c1 | 150 min | 3 | 0.66 L/h/kg | 3 µg·h/mL | 0.55 L/kg |  | 65 min | 41% | 40 min |  |  | 
C[C@H](C(=O)N[C@H](CO)c1cccc(N2CCN(C)CC2)n1)N1Cc2ccc(-c3nc(NC4CCOCC4)ncc3Cl)cc2C1=O | 60 min | 3.3 | 0.522 L/h/kg | 1.3 µg·h/mL | 0.76 L/kg |  | 120 min | 15% | 36 min | 17 min |  | 
COc1cc(F)cc([C@@H](CO)NC(=O)[C@@H](C)N2Cc3ccc(-c4nc(N[C@@H](C)CO)ncc4Cl)cc3C2=O)c1 | 108 min | 3.1 | 1.38 L/h/kg | 0.31 µg·h/mL | 1.4 L/kg |  |  | 9% | 28 min | 29 min |  | 
O=C(CN1Cc2ccc(-c3nc(NC4CCOCC4)ncc3Cl)cc2C1=O)N1CCc2ccccc2CC1 | 84 min | 4.7 | 1.14 L/h/kg | 0.44 µg·h/mL | 0.45 L/kg |  | 28 min | 10% | 17 min | 28 min |  | 
O=C(CN1Cc2ccc(-c3nc(NC4CCOCC4)ncc3Cl)cc2C1=O)N1CCCc2ccccc2C1 |  |  |  |  |  |  | < 5 min |  | < 5 min |  |  | 
COc1cc(F)cc([C@@H](CO)NC(=O)[C@@H](C)N2Cc3ccc(-c4nc(NC5COC5)ncc4Cl)cc3C2=O)c1 | 102 min | 3.3 | 0.564 L/h/kg | 2.65 µg·h/mL | 0.71 L/kg |  |  | 30% | 29 min | 50 min | 49% | 0.012 µM
COc1cc(F)cc([C@@H](CO)NC(=O)[C@@H](C)N2Cc3ccc(-c4nc(Nc5ccnn5C)ncc4Cl)cc3C2=O)c1 | 66 min | 3.3 | 0.78 L/h/kg | 0.824 µg·h/mL | 0.52 L/kg |  | 35 min | 13% | 23 min | 13 min |  | 0.01 µM
O=C(CN1Cc2ccc(-c3nc(NC4CCOCC4)ncc3Cl)cc2C1=O)N[C@@]1(CO)CCc2ccccc21 | 53.4 min | 3.6 | 2.1 L/h/kg | 0.96 µg·h/mL | 0.91 L/kg |  | 20 min | 40% | 10 min |  |  | 
COc1cc(F)cc([C@@H](CO)NC(=O)[C@@H](C)N2Cc3ccc(-c4nc(Nc5cnn(C)n5)ncc4Cl)cc3C2=O)c1 | 90 min | 3.7 | 0.498 L/h/kg | 6.4 µg·h/mL | 0.46 L/kg |  | 26 min | 64% | 26 min | 19 min |  | 0.015 µM
C[C@H](C(=O)N[C@H](CO)c1cc(F)cc(F)c1)N1Cc2ccc(-c3nc(NC4CCOCC4)ncc3Cl)cc2C1=O |  |  |  |  |  |  | 49 min |  | 23 min | < 5 min |  | 
COc1cc(F)cc([C@@H](CO)NC(=O)CN2C(=O)c3cc(-c4nc(NC5CCOCC5)ncc4Cl)ccc3[C@H]2C)c1 |  |  |  |  |  |  |  |  | 22 min | 7.3 min |  | 
COc1cc(F)cc([C@@H](CO)NC(=O)[C@@H](C)N2Cc3ccc(-c4nc(Nc5ccnc(OC)c5)ncc4Cl)cc3C2=O)c1 | 60 min | 4.2 | 0.276 L/h/kg | 4.1 µg·h/mL | 0.56 L/kg |  | 31 min | 23% | 25 min | 27 min |  | 

Results, then the compound that gave them:

half-life at 24 h [1] | chromatographic logD [2] | clearance at 24 h [3] | AUC at 24 h [4] | Vd at 24 h [5] | IC50 [6] | half-life at 40 min, 1 µM [7] | bioavailability at 24 h [8] | half-life at 40 min, 1 µM [9] | half-life at 40 min, 1 µM [10] | inhibition [11] | IC50 [12] | SMILES
 |  |  |  |  |  |  |  | 60 min | 10 min |  |  | C[C@H](C(=O)N[C@H](CO)c1cc(F)cc(OCCN(C)C)c1)N1Cc2ccc(-c3nc(NC4CCOCC4)ncc3Cl)cc2C1=O
 |  |  |  |  |  | 65 min |  | 32 min |  |  |  | O=C(CN1Cc2ccc(-c3nc(NC4CCOCC4)ncc3Cl)cc2C1=O)NCc1ccccc1
 |  |  |  |  |  | 100 min |  | 27 min |  |  |  | COc1cccc([C@@H](CO)NC(=O)[C@@H](C)N2Cc3ccc(-c4nc(NC5CCOCC5)ncc4Cl)cc3C2=O)c1
72 min | 3.2 | 1.02 L/h/kg | 0.32 µg·h/mL | 1 L/kg |  |  | 7% | 62 min | 49 min |  | 0.015 µM | COc1cc(F)cc([C@@H](CO)NC(=O)[C@@H](C)N2Cc3ccc(-c4ccnc(NC5CCOCC5)n4)cc3C2=O)c1
 | 3.6 | 7.44 L/h/kg | 0.018 µg·h/mL | 3.8 L/kg |  |  |  | 51 min |  |  |  | C[C@H](C(=O)N[C@H](CO)c1cc(F)cc(N2CCN(C)CC2)c1)N1Cc2ccc(-c3nc(NC4CCOCC4)ncc3Cl)cc2C1=O
114 min | 3.2 | 2.22 L/h/kg | 0.5 µg·h/mL | 1.9 L/kg |  |  | 23% | 36 min | 23 min |  | 0.008 µM | COc1cc(F)cc([C@@H](CO)NC(=O)[C@@H](C)N2Cc3ncc(-c4nc(NC5CCOCC5)ncc4Cl)cc3C2=O)c1
90 min | 3 | 0.408 L/h/kg | 2.4 µg·h/mL | 0.26 L/kg |  | 120 min | 20% | 33 min |  |  |  | COc1cc([C@@H](CO)NC(=O)[C@@H](C)N2Cc3ccc(-c4nc(NC5CCOCC5)ncc4Cl)cc3C2=O)ccn1
